Data as given in paper PMC8722715 (Frontiers in Cell and Developmental Biology, 2021).

Assays:
hNaV1.7 channel = target: T1, hNaV1.7 channel (Homo sapiens, UniProt Q15858); experiment: Automated patch-clamp block of hNaV1.7 peak Na+ current in CHO cells; format: cell-based; settings: for IC50: CHO cells stably expressing hNaV1.7, SyncroPatch 384 PE whole-cell, holding -100 mV, -10 mV test pulse 50 ms every 5 s, room temperature 18-22°C, 0.3% BSA, steady state or end of 15-min application, mean, S.E.M. and n cells; for hNaV1.7 IC50 versus WT: ratio of analogue mean IC50 to HwTx-IV WT mean IC50 on hNaV1.7
T1 construct: expressed in transfected cells
Outline: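 Automated whole-cell patch clamp on CHO cells stably expressing hNaV1.7, held at −100 mV at 18–22°C. Peak current evoked by 50 ms steps to −10 or 0 mV every 5 s; HwTx-IV analogues applied in extracellular solution with 0.3% BSA. Percent inhibition taken at steady-state block or after 15 min application.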

hNaV1.6 channel = target: T2, hNaV1.6 channel (Homo sapiens, UniProt Q9UQD0); experiment: Automated patch-clamp block of hNaV1.6 peak Na+ current in HEK-293 cells; format: cell-based; settings: for IC50: HEK-293 cells stably expressing hNaV1.6, SyncroPatch 384 PE whole-cell, holding -100 mV, 0 mV test pulse 50 ms every 5 s, room temperature 18-22°C, 0.3% BSA, steady state or end of 15-min application, mean, S.E.M. and n cells; for hNaV1.6 IC50 versus WT: ratio of analogue mean IC50 to HwTx-IV WT mean IC50 on hNaV1.6
T2 construct: expressed in transfected cells
Outline: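 Whole-cell automated patch clamp at −100 mV holding, room temperature (18–22°C), CsF-based internal, 0.3% BSA in external solution; 50 ms steps to −10 or 0 mV every 5 s. Percent peak-current inhibition taken at steady-state block or after 15 min application, used for dose-response curves.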

T2 sequence (Q9UQD0 whole entry): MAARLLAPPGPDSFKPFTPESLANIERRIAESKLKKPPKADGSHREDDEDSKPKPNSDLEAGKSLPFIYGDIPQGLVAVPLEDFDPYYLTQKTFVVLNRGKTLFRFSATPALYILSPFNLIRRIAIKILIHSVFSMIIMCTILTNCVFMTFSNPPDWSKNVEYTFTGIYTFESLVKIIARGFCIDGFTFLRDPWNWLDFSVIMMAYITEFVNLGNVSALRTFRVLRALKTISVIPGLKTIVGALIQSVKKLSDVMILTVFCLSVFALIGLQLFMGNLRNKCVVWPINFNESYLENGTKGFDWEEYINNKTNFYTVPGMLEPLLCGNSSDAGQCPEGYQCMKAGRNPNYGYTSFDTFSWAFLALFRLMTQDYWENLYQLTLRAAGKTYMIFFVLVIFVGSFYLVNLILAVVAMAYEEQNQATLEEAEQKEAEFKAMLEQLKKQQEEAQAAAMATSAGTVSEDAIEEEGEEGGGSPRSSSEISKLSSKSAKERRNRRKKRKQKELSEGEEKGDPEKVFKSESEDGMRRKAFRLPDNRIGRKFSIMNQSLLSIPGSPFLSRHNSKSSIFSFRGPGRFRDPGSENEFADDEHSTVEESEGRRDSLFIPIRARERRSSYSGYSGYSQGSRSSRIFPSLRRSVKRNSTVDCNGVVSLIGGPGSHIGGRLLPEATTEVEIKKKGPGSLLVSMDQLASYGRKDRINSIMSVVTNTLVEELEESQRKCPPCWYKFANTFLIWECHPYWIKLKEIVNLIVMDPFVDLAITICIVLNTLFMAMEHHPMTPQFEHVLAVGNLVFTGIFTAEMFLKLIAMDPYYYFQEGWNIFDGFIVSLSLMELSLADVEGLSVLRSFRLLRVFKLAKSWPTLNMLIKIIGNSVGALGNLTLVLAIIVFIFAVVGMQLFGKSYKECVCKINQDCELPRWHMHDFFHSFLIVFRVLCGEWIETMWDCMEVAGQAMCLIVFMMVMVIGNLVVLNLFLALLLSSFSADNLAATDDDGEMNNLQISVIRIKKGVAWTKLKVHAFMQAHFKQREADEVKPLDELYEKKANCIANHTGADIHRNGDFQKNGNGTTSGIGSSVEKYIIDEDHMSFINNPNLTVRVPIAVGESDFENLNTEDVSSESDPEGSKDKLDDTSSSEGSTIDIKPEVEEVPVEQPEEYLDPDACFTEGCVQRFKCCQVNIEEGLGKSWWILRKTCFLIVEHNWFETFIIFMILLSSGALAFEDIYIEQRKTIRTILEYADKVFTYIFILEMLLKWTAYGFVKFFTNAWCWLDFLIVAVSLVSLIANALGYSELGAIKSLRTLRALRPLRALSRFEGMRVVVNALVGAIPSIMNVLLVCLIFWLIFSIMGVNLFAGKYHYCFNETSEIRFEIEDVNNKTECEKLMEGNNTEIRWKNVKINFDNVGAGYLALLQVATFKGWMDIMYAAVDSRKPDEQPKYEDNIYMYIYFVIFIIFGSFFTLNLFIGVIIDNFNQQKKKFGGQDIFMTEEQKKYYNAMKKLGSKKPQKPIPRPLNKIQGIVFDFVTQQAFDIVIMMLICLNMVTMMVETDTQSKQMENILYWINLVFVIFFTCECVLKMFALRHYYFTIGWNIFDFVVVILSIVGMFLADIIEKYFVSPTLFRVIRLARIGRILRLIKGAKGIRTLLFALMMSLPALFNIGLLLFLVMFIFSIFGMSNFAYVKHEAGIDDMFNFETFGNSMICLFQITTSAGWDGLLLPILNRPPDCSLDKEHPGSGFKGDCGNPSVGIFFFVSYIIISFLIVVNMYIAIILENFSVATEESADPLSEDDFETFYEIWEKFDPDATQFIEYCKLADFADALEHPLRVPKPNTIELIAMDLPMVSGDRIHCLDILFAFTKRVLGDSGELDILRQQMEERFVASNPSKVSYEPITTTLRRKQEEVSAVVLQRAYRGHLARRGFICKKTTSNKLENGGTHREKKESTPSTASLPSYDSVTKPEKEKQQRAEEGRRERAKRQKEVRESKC
T1 sequence (Q15858 whole entry): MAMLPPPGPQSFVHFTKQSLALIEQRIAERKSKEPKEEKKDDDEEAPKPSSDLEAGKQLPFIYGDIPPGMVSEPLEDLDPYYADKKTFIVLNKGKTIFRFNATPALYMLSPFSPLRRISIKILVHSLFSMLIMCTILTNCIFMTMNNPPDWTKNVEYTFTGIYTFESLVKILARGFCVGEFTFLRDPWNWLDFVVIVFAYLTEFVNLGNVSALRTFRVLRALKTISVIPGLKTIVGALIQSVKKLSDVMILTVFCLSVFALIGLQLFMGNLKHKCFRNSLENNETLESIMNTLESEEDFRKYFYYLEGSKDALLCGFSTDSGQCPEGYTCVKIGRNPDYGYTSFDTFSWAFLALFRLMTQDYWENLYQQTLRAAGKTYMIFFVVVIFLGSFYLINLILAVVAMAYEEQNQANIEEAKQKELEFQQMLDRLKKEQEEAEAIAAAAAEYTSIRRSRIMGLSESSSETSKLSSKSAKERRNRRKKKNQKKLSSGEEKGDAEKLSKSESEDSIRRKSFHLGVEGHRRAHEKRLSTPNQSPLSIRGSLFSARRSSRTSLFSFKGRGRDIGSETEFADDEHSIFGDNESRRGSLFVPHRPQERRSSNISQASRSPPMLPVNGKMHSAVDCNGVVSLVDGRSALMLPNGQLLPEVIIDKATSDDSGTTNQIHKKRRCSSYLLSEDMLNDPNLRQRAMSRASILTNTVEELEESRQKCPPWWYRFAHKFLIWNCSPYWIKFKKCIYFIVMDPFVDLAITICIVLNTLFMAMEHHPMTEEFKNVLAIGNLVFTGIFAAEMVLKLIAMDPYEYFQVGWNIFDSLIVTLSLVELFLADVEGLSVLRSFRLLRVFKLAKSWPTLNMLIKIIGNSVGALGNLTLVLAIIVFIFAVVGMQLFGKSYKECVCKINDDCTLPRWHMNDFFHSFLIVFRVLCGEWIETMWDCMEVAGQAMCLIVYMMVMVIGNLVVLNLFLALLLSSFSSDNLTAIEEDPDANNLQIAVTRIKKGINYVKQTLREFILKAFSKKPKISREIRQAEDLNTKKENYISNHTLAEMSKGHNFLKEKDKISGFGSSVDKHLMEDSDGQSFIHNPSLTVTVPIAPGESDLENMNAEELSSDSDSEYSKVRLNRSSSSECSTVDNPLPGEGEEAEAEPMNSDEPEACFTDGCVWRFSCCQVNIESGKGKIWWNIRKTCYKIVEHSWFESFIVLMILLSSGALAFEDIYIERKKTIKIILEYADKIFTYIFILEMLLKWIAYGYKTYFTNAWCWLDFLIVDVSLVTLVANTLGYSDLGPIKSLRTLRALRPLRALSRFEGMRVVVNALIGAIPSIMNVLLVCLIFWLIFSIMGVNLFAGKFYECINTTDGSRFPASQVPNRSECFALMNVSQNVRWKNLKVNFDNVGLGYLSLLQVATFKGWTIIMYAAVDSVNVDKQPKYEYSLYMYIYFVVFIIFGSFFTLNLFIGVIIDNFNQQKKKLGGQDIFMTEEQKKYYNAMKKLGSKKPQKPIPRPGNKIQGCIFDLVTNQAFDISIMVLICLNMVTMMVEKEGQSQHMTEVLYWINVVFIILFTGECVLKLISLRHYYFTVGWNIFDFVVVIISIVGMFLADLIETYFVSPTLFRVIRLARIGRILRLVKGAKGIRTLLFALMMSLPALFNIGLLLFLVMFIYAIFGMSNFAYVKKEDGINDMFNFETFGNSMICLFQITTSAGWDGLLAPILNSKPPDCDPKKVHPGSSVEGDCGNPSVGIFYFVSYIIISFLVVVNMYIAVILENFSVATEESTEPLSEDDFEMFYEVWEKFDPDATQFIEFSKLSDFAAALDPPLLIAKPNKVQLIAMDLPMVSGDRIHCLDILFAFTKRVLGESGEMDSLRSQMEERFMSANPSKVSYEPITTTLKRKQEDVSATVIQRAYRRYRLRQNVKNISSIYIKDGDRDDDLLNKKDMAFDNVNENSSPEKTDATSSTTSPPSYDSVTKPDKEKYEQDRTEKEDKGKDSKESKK

Row | Structure (SMILES) | IC50 (hNaV1.7 channel) [nM] | hNaV1.7 IC50 versus WT (hNaV1.7 channel) | IC50 (hNaV1.6 channel) [nM] | hNaV1.6 IC50 versus WT (hNaV1.6 channel)
1 | CC[C@H](C)[C@H](NC(=O)[C@H](CCC(N)=O)NC(=O)[C@H](Cc1ccc(O)cc1)NC(=O)[C@H](CCCCN)NC(=O)[C@@H]1CSSC[C@@H]2NC(=O)[C@H](CCC(N)=O)NC(=O)[C@H](CC(=O)O)NC(=O)[C@H](CC(N)=O)NC(=O)[C@H](CO)NC(=O)[C@@H]3CCCN3C(=O)[C@H](CC(N)=O)NC(=O)[C@@H]3CSSC[C@H](NC(=O)[C@H](C(C)C)NC(=O)[C@H](CC(C)C)NC(=O)[C@H](CCCCN)NC(=O)[C@H](CO)NC(=O)[C@H](CO)NC(=O)[C@H](CCCCN)NC(=O)[C@H](CSSC[C@H](NC(=O)[C@@H](N)CCC(=O)O)C(=O)N[C@@H](CC(C)C)C(=O)N[C@@H](CCC(=O)O)C(=O)N[C@@H]([C@@H](C)CC)C(=O)N[C@@H](Cc4ccccc4)C(=O)N[C@@H](CCCCN)C(=O)N[C@@H](C)C(=O)N3)NC2=O)C(=O)N[C@@H](CO)C(=O)N[C@@H](C)C(=O)N[C@@H](CCCCN)C(=O)N[C@@H]([C@@H](C)O)C(=O)N[C@@H](CCCNC(=N)N)C(=O)N[C@@H](Cc2c[nH]c3ccccc23)C(=O)N1)C(N)=O [HwTx-IV R ^26A] | 112 | 11.28 | 614 | 2.71
2 | CC[C@H](C)[C@H](NC(=O)[C@H](CCC(N)=O)NC(=O)[C@H](Cc1ccc(O)cc1)NC(=O)[C@H](CCCCN)NC(=O)[C@@H]1CSSC[C@@H]2NC(=O)[C@H](CCC(N)=O)NC(=O)[C@H](CC(=O)O)NC(=O)[C@H](CC(N)=O)NC(=O)[C@H](CO)NC(=O)[C@@H]3CCCN3C(=O)[C@H](CC(N)=O)NC(=O)[C@@H]3CSSC[C@H](NC(=O)[C@H](C(C)C)NC(=O)[C@H](CC(C)C)NC(=O)[C@H](CCCCN)NC(=O)[C@H](CO)NC(=O)[C@H](CO)NC(=O)[C@H](CCCCN)NC(=O)[C@H](CSSC[C@H](NC(=O)[C@@H](N)CCC(=O)O)C(=O)N[C@@H](CC(C)C)C(=O)N[C@@H](CCC(=O)O)C(=O)N[C@@H]([C@@H](C)CC)C(=O)N[C@@H](Cc4ccccc4)C(=O)N[C@@H](CCCCN)C(=O)N[C@@H](C)C(=O)N3)NC2=O)C(=O)N[C@@H](CO)C(=O)N[C@@H](CCC(N)=O)C(=O)N[C@@H](CCCCN)C(=O)N[C@@H]([C@@H](C)O)C(=O)N[C@@H](CCCNC(=N)N)C(=O)N[C@@H](Cc2c[nH]c3ccccc23)C(=O)N1)C(N)=O [HwTx-IV R ^26Q] | 141 | 14.28 | > 1000 | >4.4
3 | CC[C@H](C)[C@H](NC(=O)[C@H](CCC(N)=O)NC(=O)[C@H](Cc1c[nH]c2ccccc12)NC(=O)[C@H](CCCCN)NC(=O)[C@@H]1CSSC[C@@H]2NC(=O)[C@H](CCC(N)=O)NC(=O)[C@H](CC(=O)O)NC(=O)[C@H](CC(N)=O)NC(=O)[C@H](CO)NC(=O)[C@@H]3CCCN3C(=O)[C@H](CC(N)=O)NC(=O)[C@@H]3CSSC[C@H](NC(=O)[C@H](C(C)C)NC(=O)[C@H](CC(C)C)NC(=O)[C@H](CCCCN)NC(=O)[C@H](CO)NC(=O)[C@H](CO)NC(=O)[C@H](CCCCN)NC(=O)[C@H](CSSC[C@H](NC(=O)[C@@H](N)CCC(=O)O)C(=O)N[C@@H](CC(C)C)C(=O)N[C@@H](CCC(=O)O)C(=O)N[C@@H]([C@@H](C)CC)C(=O)N[C@@H](Cc4ccccc4)C(=O)N[C@@H](CCCCN)C(=O)N[C@@H](C)C(=O)N3)NC2=O)C(=O)N[C@@H](CO)C(=O)N[C@@H](CCCNC(=N)N)C(=O)N[C@@H](CCCCN)C(=O)N[C@@H]([C@@H](C)O)C(=O)N[C@@H](CCCNC(=N)N)C(=O)N[C@@H](Cc2c[nH]c3ccccc23)C(=O)N1)C(N)=O [HwTx-IV Y^33W] | 22.2 | 2.24 | 207 | 0.91
